Measured values published in US20220313780A1, “METHODS AND COMPOSITIONS FOR TREATING INFLAMMATORY CONDITIONS” (THE SCRIPPS RESEARCH INSTITUTE, priority 2019, published 2022).

System: endothelial cells (EA.hy926)
Test: Transendothelial Electric Resistance (TER) assay of thrombin-induced endothelial barrier disruption
Assay type: cell-based
Conditions: peptide at 5 to 50 nM
From the text: The bottom curve in each panel of the figure is labeled as IIa for thrombin alone and represents the observed effects for thrombin (IIa) in the absence of peptide. In each panel, IIa was always present for each peptide added. The number in each panel indicates the concentration of each peptide for the respective curves. The peptide concentration of 0 is represented by the bottom curve labeled “IIa”. (A) the dose response inhibition over time of TER, expressed by Normalized Cell Index (NCI) by the PAR1 derived peptide P1(47-66) or TR47 using concentrations between 5 and 50 nM. (B) the dose response inhibition over time of NCI by the PAR3-derived peptide P3(42-65) or P3R using a 5 to 50 nM concentration range. (C) The NCI dose response inhibition over time by the short sequence PAR1-derived peptide P1(47-55) using a range of concentrations between 50 nM and 100 μM peptide. (D) The NCI dose response inhibition over time by the short sequence PAR3-derived peptide P3(42-54) using a range of concentrations between 1 μM and 200 μM peptide. (E) The NCI dose response inhibition over time by the hybrid peptide G10 in which the P1(47-55) peptide described in panel C was linked to a PAR3 peptide P3(51-65) by using 10 Gly residues. In this case the range of concentrations to study the dose response inhibition was between 3 and 50 nM peptide. An estimate for the percentage of activity for each peptide dilution in presence of thrombin can be quantified by obtaining the Area under the Curve (AUC) for each peptide dilution in comparison to the value for the AUC for thrombin alone in the absence of any peptide. These values were used to calculate the potency of each PAR peptide.
Transendothelial Electric Resistance (TER)-based assays were used to monitor the disruption of endothelial barrier integrity caused by thrombin. The anti-inflammatory, vasculoprotective actions of different PAR peptides for protecting against thrombin-induced vascular leakage on cultured endothelial cells (EA.hy926) were followed in real time using an iCELLigence machine (ACEA Biosciences Inc, San Diego, Calif.). EA.hy926 cells at a density of 10,000/well were pipetted into the wells of gold-plated microelectrode sensor (L8, Acea Biosciences). Subsequently, the increase of electrical resistance was monitored as cells grew and spread out on the microelectrodes to obtain confluence (reaching a plateau) over the TER plates connected to the recording instrument that detected in real time the changes in TER for each well. The effects of different PAR-derived peptides at the indicated concentrations were tested for dose-response inhibition of thrombin's effects when each of the peptide dilutions was added 30 min prior to the addition of thrombin (0.25 nM final in all wells). The percentage of inhibition was proportional to the increase in TER signal over time. Cell index values, reflecting TER signals, were normalized prior to addition of thrombin following manufacturer's directions.

## GAPPNSFEEFPFSALEGWTGATIT [P3R, PAR3-derived 24-mer peptide]
  effect on thrombin-induced disruption of endothelial barrier: had no significant effect
